Reference: the NIST ThermoML archive (doi:10.1016/j.jct.2016.12.032)

Assay: xn = mol fraction of the nth substance listed
Conditions: 100 kPa, Liquid; for viscosity: Capillary tube (Ostwald / Ubbelohde) method; for mass density: Vibrating tube method

O=C1CCCCO1 [1-oxacyclohexan-2-one] + CCCC[n+]1ccn(C)c1.O=S(=O)([N-]S(=O)(=O)C(F)(F)F)C(F)(F)F
Conditions	mass density [kg/m3]	viscosity [mPa·s]
293.15 K, x2 = 0	1108.53	3.68
293.15 K, x2 = 0.0532	1156.68	4.6
293.15 K, x2 = 0.1004	1196.3	5.91
293.15 K, x2 = 0.1504	1229.63	7.47
293.15 K, x2 = 0.1999	1257.2	8.95
293.15 K, x2 = 0.2988	1300.9	13.08
293.15 K, x2 = 0.4006	1337.77	17.95
293.15 K, x2 = 0.5005	1362.9	23.77
293.15 K, x2 = 0.5999	1384.82	30.89
293.15 K, x2 = 0.7	1402.18	37.58
293.15 K, x2 = 0.8013	1418.26	44.8
293.15 K, x2 = 0.8986	1429.23	52.57
298.15 K, x2 = 0	1103.96	3.3
298.15 K, x2 = 0.0532	1152.03	4.09
298.15 K, x2 = 0.1004	1191.61	5.26
298.15 K, x2 = 0.1504	1224.89	6.47
298.15 K, x2 = 0.1999	1252.42	7.78
298.15 K, x2 = 0.2988	1296.08	11.15
298.15 K, x2 = 0.4006	1332.91	15.14
298.15 K, x2 = 0.5005	1358.02	19.8
298.15 K, x2 = 0.5999	1379.92	25.62
298.15 K, x2 = 0.7	1397.27	31.17
298.15 K, x2 = 0.8013	1413.33	37.32
298.15 K, x2 = 0.8986	1424.29	43.18
303.15 K, x2 = 0	1099.44	2.98
303.15 K, x2 = 0.0532	1147.37	3.7
303.15 K, x2 = 0.1004	1186.86	4.58
303.15 K, x2 = 0.1504	1220.09	5.64
303.15 K, x2 = 0.1999	1247.58	6.74
303.15 K, x2 = 0.2988	1291.17	9.63
303.15 K, x2 = 0.4006	1327.96	12.92
303.15 K, x2 = 0.5005	1353.03	16.77
303.15 K, x2 = 0.5999	1374.9	21.34
303.15 K, x2 = 0.7	1392.22	25.71
303.15 K, x2 = 0.8013	1408.28	30.93
303.15 K, x2 = 0.8986	1419.22	35.78
308.15 K, x2 = 0	1094.83	2.7
308.15 K, x2 = 0.0532	1142.72	3.21
308.15 K, x2 = 0.1004	1182.16	4.08
308.15 K, x2 = 0.1504	1215.34	5.09
308.15 K, x2 = 0.1999	1242.79	6.06
308.15 K, x2 = 0.2988	1286.33	8.42
308.15 K, x2 = 0.4006	1323.08	11.04
308.15 K, x2 = 0.5005	1348.13	14.16
308.15 K, x2 = 0.5999	1369.99	18.33
308.15 K, x2 = 0.7	1387.29	21.9
308.15 K, x2 = 0.8013	1403.33	25.49
308.15 K, x2 = 0.8986	1414.26	29.16
313.15 K, x2 = 0	1090.27	2.47
313.15 K, x2 = 0.0532	1138.1	2.9
313.15 K, x2 = 0.1004	1177.47	3.67
313.15 K, x2 = 0.1504	1210.6	4.49
313.15 K, x2 = 0.1999	1238.01	5.31
313.15 K, x2 = 0.2988	1281.5	7.36
313.15 K, x2 = 0.4006	1318.2	9.61
313.15 K, x2 = 0.5005	1343.21	12.24
313.15 K, x2 = 0.5999	1365.03	15.74
313.15 K, x2 = 0.7	1382.31	18.59
313.15 K, x2 = 0.8013	1398.33	21.65
313.15 K, x2 = 0.8986	1409.25	24.7
318.15 K, x2 = 0	1085.71	2.25
318.15 K, x2 = 0.0532	1133.47	2.63
318.15 K, x2 = 0.1004	1172.79	3.24
318.15 K, x2 = 0.1504	1205.87	4.02
318.15 K, x2 = 0.1999	1233.25	4.72
318.15 K, x2 = 0.2988	1276.69	6.55
318.15 K, x2 = 0.4006	1313.34	8.49
318.15 K, x2 = 0.5005	1338.33	10.65
318.15 K, x2 = 0.5999	1360.13	13.7
318.15 K, x2 = 0.7	1377.38	15.98
318.15 K, x2 = 0.8013	1393.37	18.79
318.15 K, x2 = 0.8986	1404.27	21.14
323.15 K, x2 = 0	1081.16	2.09
323.15 K, x2 = 0.0532	1128.86	2.44
323.15 K, x2 = 0.1004	1168.12	2.96
323.15 K, x2 = 0.1504	1201.16	3.63
323.15 K, x2 = 0.1999	1228.6	4.26
323.15 K, x2 = 0.2988	1271.85	5.82
323.15 K, x2 = 0.4006	1308.45	7.49
323.15 K, x2 = 0.5005	1333.4	9.29
323.15 K, x2 = 0.5999	1355.18	11.2
323.15 K, x2 = 0.7	1372.41	13.85
323.15 K, x2 = 0.8013	1388.38	15.68
323.15 K, x2 = 0.8986	1399.26	17.85
